# From patent US10023541B2, “Urea compounds and their use as enzyme inhibitors” (BIAL-PORTELA & CA, S.A., priority 2012, dated 2018)
# Read-outs that look alike come from different tables or passages of the source.
# How the values were obtained:
# [1] = target: T1, FAAH (Mus musculus, UniProt O08914); test: In vivo protocol: FAAH activity in tissue homogenates after oral dosing of mice; conditions: for Peripheral Selectivity: FAAH activity in liver divided by FAAH activity in brain, lower = more peripherally selective; for activity at 3 mg/kg / activity at 0.1 mg/kg / activity at 1 mg/kg / activity at 10 mg/kg: mouse
# T1 construct: A fragment of liver, left lung lobe and brain without cerebellum were removed; from tissue; host or cells: mouse brain, liver and lung homogenates
# T1 sequence (O08914 1-579): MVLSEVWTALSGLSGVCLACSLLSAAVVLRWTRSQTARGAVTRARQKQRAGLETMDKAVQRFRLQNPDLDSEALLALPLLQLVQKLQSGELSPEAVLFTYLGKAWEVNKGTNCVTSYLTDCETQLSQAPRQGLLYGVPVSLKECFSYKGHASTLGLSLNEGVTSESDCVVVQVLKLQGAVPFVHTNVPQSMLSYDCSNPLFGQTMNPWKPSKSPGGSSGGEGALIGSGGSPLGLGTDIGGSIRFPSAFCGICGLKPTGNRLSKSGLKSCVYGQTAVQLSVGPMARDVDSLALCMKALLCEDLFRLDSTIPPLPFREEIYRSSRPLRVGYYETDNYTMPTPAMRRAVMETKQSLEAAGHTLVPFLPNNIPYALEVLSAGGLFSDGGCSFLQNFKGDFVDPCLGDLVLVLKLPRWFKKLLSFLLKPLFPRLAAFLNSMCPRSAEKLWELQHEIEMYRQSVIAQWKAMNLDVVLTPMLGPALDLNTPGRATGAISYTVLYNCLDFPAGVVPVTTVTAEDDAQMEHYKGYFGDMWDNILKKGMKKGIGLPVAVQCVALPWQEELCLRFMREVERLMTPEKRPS
# Description: In vivo testing was performed according to the protocol described below. BRh (brain homogenate) indicates inhibition in central nervous tissue, in this case, brain, and LVh (liver homogenate) indicates inhibition in peripheral tissue, in this case, liver. The controls were the reaction mix minus the test compounds. Therefore, a low value for the test compound indicates a strong inhibitor.
# The animals used for experiments were male NMRI mice (weighing 27-44 g) obtained from Interfauna Ibérica (Spain). Mice were kept 5 per cage, under controlled environmental conditions (12 hr light/dark cycle and room temperature 221° C.). Food and tap water were allowed ad libitum and the experiments were all carried out during daylight hours.
# […] compounds via oral route (8 ml/kg; compound suspended in 0.5% carboxymethylcellulose (CMC) or solubilized in water) or vehicle (controls) using animal feeding stainless steel curve needles (Perfectum, U.S.A.). Fifteen minutes before sacrifice animal were anesthetized with pentobarbital 60 mg/kg administered intraperitoneally. A fragment of liver, left lung lobe and brain without cerebellum were removed and put in plastic vials containing membrane buffer (3 mM MgCl2, 1 mM EDTA, 50 mM Tris HCl pH 7.4). Tissues were stored at −30° C. until analysis.
# Animals were always fasted overnight before administration of compounds except for time points of >18 h, where food was removed on the morning of day of administration and the compound was administered in the afternoon of the same day. Animals were then given water but nothing else.
# Tissues were thawed on ice and were homogenized in 10 volumes of membrane buffer (3 mM MgCl2, 1 mM EDTA, 50 mM Tris HCl pH 7.4) with either Potter-Elvejhem (brains—8 strokes at 500 rpm) or Heidolph Diax (livers—2 strokes at position 5 for 20 sec with 30 sec pauses).
# Total protein in tissues was determined with the BioRad Protein Assay (BioRad) using a standard curve of BSA (50-250 μg/ml).
# Reaction mix (total volume of 200 μl) contained: 2 μM AEA (2 μM AEA+5 nM ^3H-AEA), 0.1% fatty acid free BSA, 15 μg (brain), 5 μg (liver) or 50 μg (lung) protein, in 1 mM EDTA, 10 mM Tris pH 7.6. After a 15 min pre-incubation period at 37° C. reaction was started by the addition of the substrate solution (cold AEA+radiolabelled AEA+BSA). Reaction was carried out for 10 min (brain and lung) or 7 min (liver) before termination by the addition of 400 μl activated charcoal suspension (8 g charcoal in 32 ml 0.5 M HCl in continuous agitation). After a 30 min incubation period at room temperature with agitation, charcoal was sedimented by centrifugation in microfuge (10 min at 13000 rpm). 200 μl of the supernatant were added to 800 μl Optiphase Supermix scintillation cocktail previously distributed in 24-well plates. Counts per minute (cpm) were determined in a MicrobetaTriLux scintillation counter.
# In each assay blanks (without protein) were prepared.
# The percentage of remaining enzymatic activity was calculated with respect to controls and after blank subtraction.
# [2] = CYPs metabolic stability assay in HLM; format: in vitro ADME, human; conditions: 1 h, 5 μM; for Metabolic Stability (% of Remaining) Human CYP+: with NADPH; for Metabolic Stability (% of Remaining) Human CYP−: without NADPH
# Description: (§1) Stability of the test compounds was performed in MLM (mouse liver microsomes) or HLM (human liver microsomes) in the presence and in the absence of NADPH.
# (§2) The stability was measured using the incubation mixture (100 μl total volume) contained 1 mg/ml total protein, MgCl2 5 mM and 50 mM K-phosphate buffer. Samples were incubated in the presence and in the absence of NADPH 1 mM. Reactions were pre-incubated 5 min and the reaction initiated with the compound under test (5 μM for HLM and 50 μM for MLM). Samples were incubated for 60 min in a shaking water bath at 37° C. The reaction was stopped by adding 100 μl of acetonitrile. Samples were then centrifuged, filtered and supernatant injected in HLPC-MSD. Test compounds were dissolved in DMSO and the final concentration of DMSO in the reaction was below 0.5% (v/v). At TO acetonitrile was added before adding the compound. All experiments were performed with samples in duplicate.
# (§3) The stability data are given as % of remaining compound after 1 h exposure to MLM or HLM. 100% means no metabolic reaction at all and 0% corresponds to full enzymatic degradation. “CYP−” refers to the absence of cofactor (NADPH) which is essential for CYP metabolic reactions. Therefore “CYP−” can be regarded as control value. “CYP+” refers to the presence of cofactor and the enzymatic degradation may take place according to the stability of the test compound.
# [3] = target: T1, FAAH; test: ED50 determination of FAAH inhibition in liver after p.o. administration; format: in vivo; conditions: po, read-out: Liver ED50 (95CI)
# Source text: Confidence intervals (95%) are included.
# [4] = CYPs metabolic stability assay in MLM; format: in vitro ADME, mouse; conditions: 1 h, 50 μM; for Metabolic Stability (% of Remaining) Mouse CYP+: with NADPH; for Metabolic Stability (% of Remaining) Mouse CYP−: without NADPH
# Description: as §1, §2, §3
# [5] = target: T2, FAAH (Rattus norvegicus, UniProt P97612); test: Determination of IC50 in rat brain membrane FAAH enzymatic assay (3H-AEA); format: biochemical; conditions: rat brain membranes, 2 μM AEA, 15 min preincubation
# T2 construct: Frozen brains from 4 Wistar rats were homogenized; from tissue; host or cells: Wistar rat brain membranes
# T2 sequence (P97612 1-579): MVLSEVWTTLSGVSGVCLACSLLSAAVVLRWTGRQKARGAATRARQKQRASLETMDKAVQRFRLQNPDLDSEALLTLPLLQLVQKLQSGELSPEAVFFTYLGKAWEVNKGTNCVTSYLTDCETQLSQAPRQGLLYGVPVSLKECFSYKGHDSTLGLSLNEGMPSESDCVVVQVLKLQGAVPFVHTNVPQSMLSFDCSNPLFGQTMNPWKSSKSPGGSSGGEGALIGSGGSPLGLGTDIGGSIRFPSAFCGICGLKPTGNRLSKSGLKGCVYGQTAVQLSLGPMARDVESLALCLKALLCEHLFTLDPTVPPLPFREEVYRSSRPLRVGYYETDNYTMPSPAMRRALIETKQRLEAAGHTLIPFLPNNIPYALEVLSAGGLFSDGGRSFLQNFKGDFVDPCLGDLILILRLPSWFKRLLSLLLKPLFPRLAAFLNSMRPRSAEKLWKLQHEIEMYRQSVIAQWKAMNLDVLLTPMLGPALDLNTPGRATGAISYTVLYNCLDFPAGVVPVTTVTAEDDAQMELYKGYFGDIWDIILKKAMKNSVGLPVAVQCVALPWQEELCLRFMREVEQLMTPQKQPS
# Description: Anandamide[ethanolamine-1-^3H-] was obtained from American Radiochemicals—with a specific activity of 60 Ci/mmol. All other reagents were obtained from Sigma-Aldrich. Optiphase Supermix was obtained from Perkin Elmer and activated charcoal was obtained from Sigma.
# Frozen brains from 4 Wistar rats were homogenized in 20 ml 1 mM MgCl2, 20 mM HEPES (4-(2-hydroxyethyl)-1-piperazineethanesulfonic acid) pH 7.0 with Potter-Elvejhem (8 strokes at 500 rpm). Homogenates were centrifuged for 20 min at 36000 g at 4° C. (Beckman, 70Ti rotor). Pellets were resuspended in 15 ml of the same buffer and centrifuged under the same conditions. Pellets were resuspended in 15 ml of the same buffer and incubated for 15 min at 37° C. after which they were centrifuged for 20 min at 36000 g at 4° C. Each pellet was then resuspended in 10 ml 3 mM MgCl2, 1 mM EDTA (Ethylenediaminetetraacetic acid), 50 mM Tris (2-Amino-2-hydroxymethyl-propane-1,3-diol) pH 7.4 and protein determined with the BioRad Protein Assay (BioRad) using a standard curve of BSA (Bovine Serum Albumin) (50-250 μg/ml).
# Reaction mix (total volume of 200 μl) contained: 2 μM AEA (2 μM AEA+5 nM ^3H-AEA), 0.1% fatty acid free BSA, 5 or 10 μg protein, in 1 mM EDTA, 10 mM Tris pH 7.6 and compound 1 at various concentrations. […] Counts per minute (CPM) or disintegrations per minute (DPM) were determined in a MicrobetaTriLux scintillation counter. […]
# [6] = po, brain homogenate, 3 mg/kg po, 8 h, % remaining activity vs control, read-out: FAAH Activity (%) Br. h. 3 mg/kg. 8 h. po
# [7] = po, liver homogenate, 3 mg/kg po, 8 h, % remaining activity vs control, read-out: FAAH Activity (%) Lv. h. 3 mg/kg. 8 h. po
# [8] = 1 h, 3 mg/kg, read-out: FAAH Activity (%) mouse Liver
# [9] = 8 h, 0.1 mg/kg, read-out: FAAH Activity (%) mouse Liver
# [10] = 8 h, read-out: FAAH Activity (%) mouse Liver
# [11] = 8 h, 3 mg/kg, read-out: FAAH Activity (%) mouse Liver
"Peripheral Selectivity ([1]; 3 mg/kg po, 8 h)","activity at 3 mg/kg [1, 6] [%]","activity at 3 mg/kg [1, 7] [%]",ED50 ([3]; Time 8 h) [mg/kg],SMILES,Metabolic Stability (% of Remaining) Human CYP+ [2] [%],Metabolic Stability (% of Remaining) Human CYP− [2] [%],ED50 [3] [mg/kg],Metabolic Stability (% of Remaining) Mouse CYP+ [4] [%],Metabolic Stability (% of Remaining) Mouse CYP− [4] [%],IC50 [5] [nM],"factor by which most peripherally selective compound ([1]; compared with comparator compounds, 3 mg/kg po, 8 h)","fold more potent than comparator compound 2 ([1]; mouse liver, 0.1 mg/kg, 8 h post-dose)","activity at 3 mg/kg [1, 8] [%]","activity at 0.1 mg/kg [1, 9] [%]","activity at 1 mg/kg [1, 10] [%]","activity at 3 mg/kg [1, 11] [%]","activity at 10 mg/kg [1, 10] [%]"
0.235,86.2,20.3,,"CN(C(=O)n1cnc(-c2cccc(NC(=N)N)c2)c1)C1CCCCC1 [Comparator Compound 1, N-cyclohexyl-4-(3-guanidinophenyl)-N-methyl-1H-imidazole-1-carboxamide]",,,,,,,,,,,,,
0.017,121,2.1,0.17,"CN(C(=O)n1cnc(-c2ccc(F)c(O)c2)c1)C1CCCC1 [Comparator Compound 2, N-cyclopentyl-4-(4-fluoro-3-hydroxyphenyl)-N-methyl-1H-imidazole-1-carboxamide]",70,92,,53,92,,,,17,73.8,4.9,2.1,1.2

SMILES,"Peripheral Selectivity ([1]; 3 mg/kg po, 8 h)","activity at 3 mg/kg [1, 6] [%]","activity at 3 mg/kg [1, 7] [%]",ED50 ([3]; Time 8 h) [mg/kg],Metabolic Stability (% of Remaining) Human CYP+ [2] [%],Metabolic Stability (% of Remaining) Human CYP− [2] [%],ED50 [3] [mg/kg],Metabolic Stability (% of Remaining) Mouse CYP+ [4] [%],Metabolic Stability (% of Remaining) Mouse CYP− [4] [%],IC50 [5] [nM],"factor by which most peripherally selective compound ([1]; compared with comparator compounds, 3 mg/kg po, 8 h)","fold more potent than comparator compound 2 ([1]; mouse liver, 0.1 mg/kg, 8 h post-dose)","activity at 3 mg/kg [1, 8] [%]","activity at 0.1 mg/kg [1, 9] [%]","activity at 1 mg/kg [1, 10] [%]","activity at 3 mg/kg [1, 11] [%]","activity at 10 mg/kg [1, 10] [%]"
"CN(C(=O)n1cnc(-c2cccc(NC(N)=O)c2)c1)C1CCCC1 [Compound 1, N-Cyclopentyl-N-methyl-4-(3-ureidophenyl)-1H-imidazole-1-carboxamide]",0.008,85.1,0.7,,82,99,0.03,96,95,27,> 2,more than 10 fold,1.9,6.4,1.6,0.7,0.4
